One assay addresses T1, AnBLUF46 (Acinetobacter nosocomialis, UniProt A0AA36NWK2).
T1 construct: gene ANICBIBUN_11750; full length, 147 residues, N-terminal His-tag, pET28-TEV, E. coli BL21 (pLysS), Ni-NTA; tag cleavage not mentioned
T1 sequence (A0AA36NWK2 1-147): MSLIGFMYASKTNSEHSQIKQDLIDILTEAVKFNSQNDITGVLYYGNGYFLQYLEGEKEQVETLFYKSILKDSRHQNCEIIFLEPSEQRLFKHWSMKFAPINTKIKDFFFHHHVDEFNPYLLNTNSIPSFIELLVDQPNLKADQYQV
Briefly: UV-vis absorption and fluorescence emission of the co-purified flavin. It counts as binding. To be noted: 20 mM Tris-HCl, 200 mM NaCl, pH 8.0, 15 °C; flavin as purified with the protein, fully oxidized; flavin identity assigned by the authors, no separate analysis.

The next assay has as its target T2, AnBLUF65 (Acinetobacter nosocomialis, UniProt A0AA36P071).
T2 construct: gene ANICBIBUN_09924; full length, 156 residues, N-terminal His-tag, synthetic gene in pET28a(+), E. coli BL21 (pLysS), Ni-NTA
T2 sequence (A0AA36P071 1-156): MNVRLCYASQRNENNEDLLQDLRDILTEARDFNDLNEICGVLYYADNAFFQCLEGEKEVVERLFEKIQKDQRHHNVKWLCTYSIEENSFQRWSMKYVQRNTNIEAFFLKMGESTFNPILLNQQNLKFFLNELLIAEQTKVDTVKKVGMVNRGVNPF
The description is as above. The conditions noted are these: 20 mM Tris-HCl, 200 mM NaCl, pH 8.0, 15 °C; flavin as purified with the protein, fully oxidized; flavin identity assigned by the authors, no separate analysis. It counts as binding.

Regarding `Cc1cc2nc3c(=O)[nH]c(=O)nc-3n(C[C@H](O)[C@H](O)[C@H](O)COP(=O)(O)OP(=O)(O)OC[C@H]3O[C@@H](n4cnc5c(N)ncnc54)[C@H](O)[C@@H]3O)c2cc1C` [FAD], the “UV-vis absorption and fluorescence emission of the co-purified flavin” value on AnBLUF46 and on AnBLUF65 was “blue-shifted compared with free FAD in the same working buffer” each time.

Source of the values: paper PMC9020721, “Characterization of BLUF-photoreceptors present in Acinetobacter nosocomialis” (PLoS ONE, 2022).
